This note sets out measurements from paper PMC11285769, “A pan-respiratory antiviral chemotype targeting a transient host multi-protein complex” (Open Biology, 2024).

Several values for one entry are separate records, joined by “and”; a condition that tells them apart may be missing. Identical values can stand only once. Some results are limits rather than exact numbers.

In one test the test system is FLUV A/WSN/33. The class given is cell-based, influenza A/WSN/33.
For test [1], the system named is SARS-CoV-2 Omicron variant (lineage B.A.1). The class given is cell-based.
The test system of test [2] is SARS-CoV-2 gamma variant, lineage P.1. The class given is cell-based.
Test [3] deals with SARS-CoV-2 delta variant (lineage B.1.617.2). The class given is cell-based.

Take `CCOC(=O)C1=C[C@@H](OC(CC)CC)[C@H](NC(C)=O)[C@@H](N)C1` [Oseltamivir, reference compound]: the “activity against FLUV after 7 passages with compound” value in the test on FLUV A/WSN/33 is reported as “lost activity by passage 7”.
As for `COc1c(CNC(=O)c2cc(C3CC3)nn2C)cccc1OC(F)(F)F` [PAV-431], the “efficacy against SARS-CoV-2 Omicron” value in test [1] is “significant efficacy”. The “viral load eliminated compared to vehicle” value in test [2] is listed as ≥ 90%. In addition, the “efficacy against SARS-CoV-2 delta variant” value in test [3] is given as “clear trend”.
`COc1cccc(CNC(=O)c2cc(C3CC3)nn2C)c1OC` [PAV-835]: in the test on FLUV A/WSN/33, the “activity against FLUV after 7 passages with compound” value is “retained the same activity against FLUV as it did against a naive strain”; the “percentage reduction in infection” value is 98.9 percentage and 91.9 percentage.
